Source: paper PMC10539361, “Allosteric modulation of the fish taste receptor type 1 (T1R) family by the extracellular chloride ion” (Scientific Reports, 2023)

Target: T1, mfT1R2a/mfT1R3 (Oryzias latipes, UniProt Q2MHK2+Q2MHK5)
T1 sequence (Q2MHK5 20-819): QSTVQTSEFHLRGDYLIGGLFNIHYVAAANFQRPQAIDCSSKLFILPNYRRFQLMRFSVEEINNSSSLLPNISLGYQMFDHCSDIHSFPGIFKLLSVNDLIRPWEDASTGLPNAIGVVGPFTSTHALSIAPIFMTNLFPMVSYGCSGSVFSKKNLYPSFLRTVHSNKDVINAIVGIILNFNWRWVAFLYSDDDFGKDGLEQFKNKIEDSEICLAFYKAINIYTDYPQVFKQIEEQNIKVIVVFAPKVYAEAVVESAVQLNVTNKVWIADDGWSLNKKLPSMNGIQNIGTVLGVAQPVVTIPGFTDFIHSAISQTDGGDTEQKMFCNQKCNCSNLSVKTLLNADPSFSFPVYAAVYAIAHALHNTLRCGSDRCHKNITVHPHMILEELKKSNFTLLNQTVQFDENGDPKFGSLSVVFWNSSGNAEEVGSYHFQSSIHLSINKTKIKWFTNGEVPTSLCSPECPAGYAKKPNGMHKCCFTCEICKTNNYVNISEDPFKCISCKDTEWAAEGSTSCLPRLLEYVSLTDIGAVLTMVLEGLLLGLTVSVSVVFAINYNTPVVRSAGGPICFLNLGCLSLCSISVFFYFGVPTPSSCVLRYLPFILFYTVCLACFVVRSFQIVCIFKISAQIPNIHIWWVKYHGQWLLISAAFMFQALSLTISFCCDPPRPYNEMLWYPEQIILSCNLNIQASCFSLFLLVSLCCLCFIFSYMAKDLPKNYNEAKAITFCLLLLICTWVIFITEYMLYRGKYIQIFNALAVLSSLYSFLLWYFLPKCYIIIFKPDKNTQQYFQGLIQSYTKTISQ
T1 sequence (Q2MHK2 20-853): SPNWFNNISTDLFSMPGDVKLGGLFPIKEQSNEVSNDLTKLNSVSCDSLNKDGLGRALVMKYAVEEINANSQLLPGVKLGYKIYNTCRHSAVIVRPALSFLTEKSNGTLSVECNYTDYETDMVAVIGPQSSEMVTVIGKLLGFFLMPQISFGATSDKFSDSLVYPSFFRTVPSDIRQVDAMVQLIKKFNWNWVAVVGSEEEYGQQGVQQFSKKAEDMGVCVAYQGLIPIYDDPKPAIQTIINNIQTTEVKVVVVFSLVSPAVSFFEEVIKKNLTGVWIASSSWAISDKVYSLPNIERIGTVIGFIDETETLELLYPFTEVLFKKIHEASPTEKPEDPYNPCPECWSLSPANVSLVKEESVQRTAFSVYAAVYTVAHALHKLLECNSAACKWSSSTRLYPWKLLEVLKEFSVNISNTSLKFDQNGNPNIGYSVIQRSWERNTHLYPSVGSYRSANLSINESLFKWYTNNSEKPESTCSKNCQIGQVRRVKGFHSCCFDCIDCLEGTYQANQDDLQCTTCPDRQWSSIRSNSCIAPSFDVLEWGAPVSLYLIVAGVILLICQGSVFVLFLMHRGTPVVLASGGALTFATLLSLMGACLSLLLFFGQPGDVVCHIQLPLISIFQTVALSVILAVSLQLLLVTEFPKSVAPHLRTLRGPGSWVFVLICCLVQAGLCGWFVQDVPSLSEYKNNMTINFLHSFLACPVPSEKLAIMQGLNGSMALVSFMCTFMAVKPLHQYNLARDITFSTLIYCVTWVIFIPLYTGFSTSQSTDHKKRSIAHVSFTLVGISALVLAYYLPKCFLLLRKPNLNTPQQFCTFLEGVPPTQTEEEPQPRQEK
Assay: Ca2+ mobilization dose-response assay, stable cells expressing mfT1R2a/mfT1R3 with G16gust44
Procedure: The buffers with lower Cl^− were prepared by progressively replacing NaCl, KCl, CaCl2 and MgCl2 in the buffer with gluconate equivalents[20]. The pH was adjusted to 7.4 with NaOH. Ligands were diluted with the assay buffers at the desired concentrations.
Measurements of the responses of the cells by cell-based assay based on the intracellular Ca^2+ mobilization were carried out as described previously with some modifications[20],[34],[46],[47]. […] The cells were seeded in 96-well plates (clear-bottomed CellBIND surface plate, Corning, Glendale, AZ, USA) coated with ε-poly-L-lysine (Cosmo Bio, Tokyo, Japan) at approximately 70,000 cells per well. After 20 h, the medium was removed and replaced with high Cl^− buffer. After 3 h 30 min incubation at 27 °C, cells were loaded with 5 µM calcium-indicator dye Fluo-8 AM (AAT Bioquest, Sunnyvale, CA, USA) diluted in high Cl^− buffer. After incubation for 30 min at 27 °C, the cells were washed with buffers containing appropriate concentrations of Cl^−. The cellular assay was initiated after 3–5 min of resting and was completed within 5 min. The measurements were made using FlexStation 3 (Molecular Devices, Sunnyvale, CA, USA) at 27 °C. Fluorescence changes (i.e., excitation at 485 nm and emission at 525 nm with a cutoff at 515 nm) were monitored at 2 s intervals. A 100-µL aliquot of assay buffer supplemented with 2 × ligands was added at 20 s, and scanning was continued for an additional 40 s. The response of each well was determined as ∆RFU (delta relative fluorescent units), which was calculated as (maximum fluorescent value)—(minimum fluorescent value). […] Such normalized data from more than three independent experiments are reported as the mean ± standard error of the mean (SEM). Dose‒response fitting curves were calculated by Prism 9 (GraphPad Software, San Diego, CA) using nonlinear regression (log(agonist) vs. response—variable slope), based on the integrated data from the several independent experiments.

SMILES	EC50 in 10 mM Cl- buffer relative to high Cl- buffer (10 mM vs 141.4 mM Cl- buffer) [times higher]	[Cl-]o at which sensitivity is clearly reduced (agonist L-Gln, buffers with 10-141.4 mM Cl-)	[Cl-]o required for saturation of the sensitivity (sensitivity to L-Gln, Fig. 2A,D) [mM]
C[C@H](N)C(=O)O [L-Ala, L-alanine]	~7	–	–
[Cl-].[Na+] [NaCl]	–	below 80 mM	40 to 80
